Results on 2 compounds are retold here after paper PMC11539244, “Relative inhibitory activities of newly developed diazabicyclooctanes, boronic acid derivatives, and penicillin-based sulfone β-lactamase inhibitors against broad-spectrum AmpC β-lactamases” (Antimicrobial Agents and Chemotherapy, 2024).

Where two headings read alike, the source gives them in different places.

The subject of one assay is E. coli ATCC 25922. Kind of assay: MIC by broth microdilution, E. coli ATCC 25922. The following applies: Escherichia coli. Format: cell-based. Here is the method:
(§1) MICs were determined in triplicate by broth microdilution (BMD) for CAZ and AMX, as well as their combinations with each β-lactamase inhibitor. CAZ, AMX, and CLA were purchased from Sigma-Aldrich (St. Louis, MO, USA). All others inhibitors (TAZ HY-W009168, AVI HY-14879, REL HY-16752, VAB HY-19930, NAC HY-109008, ZID HY-120859, TAN HY-109124, XER HY-136072, DUR HY-117974, EMT HY-103095) were purchased from MedChem Express (Luzern, Switzerland). The concentration of each β-lactamase inhibitor was chosen as the concentration used in the respective BL/BLI combination under development or commercially available, according to EUCAST or CLSI ([18], [19]). […] BMD assays were performed in cation-adjusted Mueller-Hinton (MH) broth (Bio-Rad, Marnes-la-Coquette, France) for all antibiotics or antibiotic combinations listed above, according to the EUCAST guidelines ([20]).
In general terms: Broth dilution looks for growth in wells or tubes with falling amounts of substance.

Assay [1] relates to E. coli MOX-2 (E. coli TOP10 recombinant strain). Kind of assay: microbe, parasite or virus in culture. Particulars: Escherichia coli, read-out: MICs. In kind it is cell-based. Here is the method:
(§2) In order to assess the relative inhibitory activities of those BLI against AmpC β-lactamases, the corresponding blaampC genes without the original promoter sequences were amplified by PCR with specific primers, and corresponding amplicons were cloned into plasmid pUCp24, as described previously ([12], [13]). […] Cultures of E. coli TOP10 harboring recombinant plasmids and therefore producing the different AmpC tested were grown overnight at 37°C in Luria-Bertani agar medium containing amoxicillin (AMX) (50 µg/mL). The activity of the following acquired class C β-lactamases could therefore be evaluated, namely, ACC-1 (originally from Hafnia spp.), FOX-5 (from Aeromonas allosaccharophila), CMY-2 and CMY-42 (from Citrobacter spp.), DHA-1 (from Morganella morganii), ACT-7 and ACT-17 (from Enterobacter asburiae), MIR-17 (from Enterobacter roggenkampii), MOX-2 (from Aeromonas caviae), and LAT-1 (from Citrobacter portucalensis) ([5]). […] Altogether, these enzymes were chosen as representatives of clinically relevant class C β-lactamases being sources of intrinsic or acquired resistance to broad-spectrum β-lactams among most of the commonly identified Gram-negative bacteria in clinical practice.
as §1

For assay [2], the system named is E. coli ACC-1 (E. coli TOP10 recombinant strain). The assay can be described thus: microbe, parasite or virus in culture. Format: cell-based. Particulars: Escherichia coli, read-out: MICs. Here is the method:
as §2, §1

In assay [3] the test system is E. coli LAT-1 (E. coli TOP10 recombinant strain). The assay can be described thus: microbe, parasite or virus in culture. In kind it is cell-based. The following applies: Escherichia coli, read-out: MICs. The protocol: as §2, §1
Assay [4] has as its system E. coli PDC-382 (E. coli TOP10 recombinant strain). The assay can be described thus: microbe, parasite or virus in culture. Format: cell-based. The following applies: Escherichia coli, read-out: MICs. Here is the method:
as §2, §1

The subject of assay [5] is E. coli CMY-2 (E. coli TOP10 recombinant strain). Kind of assay: microbe, parasite or virus in culture. In kind it is cell-based. Particulars: Escherichia coli, read-out: MICs. Here is the method:
as §2, §1

The test system of assay [6] is E. coli PDC-1 (E. coli TOP10 recombinant strain). Kind of assay: microbe, parasite or virus in culture. Particulars: Escherichia coli, read-out: MICs. Format: cell-based. Here is the method:
as §2, §1

Assay [7] concerns E. coli Ear-1 (E. coli TOP10 recombinant strain). Kind of assay: microbe, parasite or virus in culture. Format: cell-based. The following applies: Escherichia coli, read-out: MICs. The protocol:
as §2, §1

The test system of assay [8] is E. coli ACT-7 (E. coli TOP10 recombinant strain). Kind of assay: microbe, parasite or virus in culture. In kind it is cell-based. Particulars: Escherichia coli, read-out: MICs. Here is the method:
as §2, §1

Assay [9] deals with E. coli CMY-42 (E. coli TOP10 recombinant strain). The assay can be described thus: microbe, parasite or virus in culture. Format: cell-based. The following applies: Escherichia coli, read-out: MICs. The protocol: as §2, §1
In assay [10] the test system is E. coli ACT-17 (E. coli TOP10 recombinant strain). Kind of assay: microbe, parasite or virus in culture. Particulars: Escherichia coli, read-out: MICs. In kind it is cell-based. Here is the method:
as §2, §1

In assay [11] the test system is E. coli PDC-5 (E. coli TOP10 recombinant strain). Kind of assay: microbe, parasite or virus in culture. Format: cell-based. Particulars: Escherichia coli, read-out: MICs. Here is the method: as §2, §1
For assay [12], the system named is E. coli MIR-17 (E. coli TOP10 recombinant strain). Kind of assay: microbe, parasite or virus in culture. Format: cell-based. Particulars: Escherichia coli, read-out: MICs. Here is the method:
as §2, §1

For assay [13], the system named is E. coli FOX-5 (E. coli TOP10 recombinant strain). The assay can be described thus: microbe, parasite or virus in culture. Format: cell-based. The following applies: Escherichia coli, read-out: MICs. Here is the method:
as §2, §1

For assay [14], the system named is E. coli DHA-1 (E. coli TOP10 recombinant strain). The assay can be described thus: microbe, parasite or virus in culture. In kind it is cell-based. The following applies: Escherichia coli, read-out: MICs. Here is the method: as §2, §1
Assay [15] relates to E. coli YRC-1 (E. coli TOP10 recombinant strain). The assay can be described thus: microbe, parasite or virus in culture. Format: cell-based. Particulars: Escherichia coli, read-out: MICs. Here is the method:
as §2, §1

Assay [16] has as its system E. coli SRT-2 (E. coli TOP10 recombinant strain). Kind of assay: microbe, parasite or virus in culture. Format: cell-based. The following applies: Escherichia coli, read-out: MICs. The protocol:
as §2, §1

In assay [17] the test system is E. coli TOP10. The assay can be described thus: microbe, parasite or virus in culture. The following applies: Escherichia coli; E. coli TOP10; broth microdilution; β-lactam alone or with inhibitor at fixed conc.: CLA 2 µg/mL; TZB, AVI, REL, NAC, ZID, DUR, TAN 4 µg/mL; VAB, XER, EMT 8 µg/mL; read-out: MICs. Format: cell-based. Here is the method:
as §2, §1

The test system of assay [18] is Escherichia coli NCTC 13353 (CTX-M-15, OXA-1). The assay can be described thus: QC susceptibility testing (MIC), E. coli NCTC 13353. In kind it is cell-based. Particulars: NCTC13353, read-out: Minimal Inhibitory Concentrations. The protocol: as §1
(§3) Table S1. Susc eptibility testing of al l QC strains used in the study.
(§4) Mi n ima l In hibitory Concentrations (µg / ml) a […]

Assay [19] deals with Pseudomonas aeruginosa ATCC 27853 (inducible AmpC). Kind of assay: microbe, parasite or virus in culture. Format: cell-based. The following applies: ATCC27853, QC strain P. aeruginosa ATCC 27853, broth microdilution, Table S1, read-out: Minimal Inhibitory Concentrations. The protocol: as §1, §3, §4
For assay [20], the system named is Klebsiella pneumoniae ATCC 700603 (SHV-18, OXA-2). Kind of assay: microbe, parasite or virus in culture. In kind it is cell-based. Particulars: ATCC700603, read-out: Minimal Inhibitory Concentrations. The protocol:
as §1, §3, §4

Assay [21] concerns E. coli ADC-50 (E. coli TOP10 recombinant strain). The assay can be described thus: microbe, parasite or virus in culture. Format: cell-based, Escherichia coli. The following applies: Escherichia coli, read-out: MICs. Here is the method:
as §2, §1

The target in another assay is ADC-50 (Acinetobacter baumannii, UniProt Q6DRA1). Kind of assay: IC50 of β-lactamase inhibitors, crude extract, ADC-50. In kind it is biochemical, A. baumannii. The following applies: ADC-50, crude extract of E. coli TOP10 recombinant strain, mean of triplicate.
Another assay has as its target DHA-1 (Morganella morganii, UniProt P94958). Kind of assay: IC50 of β-lactamase inhibitors, crude extract, DHA-1. In kind it is biochemical.
A further assay addresses YRC-1 (Yersinia ruckeri, UniProt Q20I87). Kind of assay: IC50 of β-lactamase inhibitors, crude extract, YRC-1. Format: biochemical.
A further assay concerns the target LAT-1 (Citrobacter portucalensis, UniProt Q48443). Kind of assay: biochemical.
Assay [22] deals with E. coli TOP10. More on the design: method as in PMID 38727224. The following applies: inhibitor alone, previous study; cited from earlier work.
Another assay concerns the target ACT-17 (Enterobacter asburiae, UniProt P05364). In kind it is biochemical. Particulars: crude extract of E. coli TOP10 recombinant strain, mean of triplicate.
The target in another assay is ACC-1 (Hafnia alvei, UniProt Q9XB24). The assay can be described thus: IC50 of β-lactamase inhibitors, crude extract, ACC-1. Format: biochemical.
Chain of ACC-1 (Q9XB24 entry or part of it): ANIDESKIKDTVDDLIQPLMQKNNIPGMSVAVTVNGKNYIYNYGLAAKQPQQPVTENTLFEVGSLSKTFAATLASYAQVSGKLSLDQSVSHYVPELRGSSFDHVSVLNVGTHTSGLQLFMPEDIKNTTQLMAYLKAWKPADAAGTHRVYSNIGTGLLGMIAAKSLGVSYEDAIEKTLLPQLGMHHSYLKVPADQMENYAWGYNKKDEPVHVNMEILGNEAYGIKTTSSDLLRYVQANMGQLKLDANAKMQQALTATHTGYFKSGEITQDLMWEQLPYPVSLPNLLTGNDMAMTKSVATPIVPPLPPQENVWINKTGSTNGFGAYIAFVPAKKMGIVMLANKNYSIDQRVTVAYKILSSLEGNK
For a further assay, the target named is T1, PDC-1 (Pseudomonas aeruginosa, UniProt P24735).
T1 construct: made in house; host or cells: E. coli TOP10, plasmid pUCp24
T1 sequence (P24735 27-397): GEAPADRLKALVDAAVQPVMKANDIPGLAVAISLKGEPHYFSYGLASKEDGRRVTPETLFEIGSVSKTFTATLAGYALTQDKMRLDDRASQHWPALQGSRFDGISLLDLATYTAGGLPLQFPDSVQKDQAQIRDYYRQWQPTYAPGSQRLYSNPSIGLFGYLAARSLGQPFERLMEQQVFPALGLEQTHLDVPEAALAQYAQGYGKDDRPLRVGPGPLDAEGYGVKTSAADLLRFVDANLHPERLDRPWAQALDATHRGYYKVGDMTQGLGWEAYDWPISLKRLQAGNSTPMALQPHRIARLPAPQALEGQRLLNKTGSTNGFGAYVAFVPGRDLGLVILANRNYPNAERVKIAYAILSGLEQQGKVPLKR
Kind of assay: biochemical. The arrangement: species or system P. aeruginosa.

For another assay, the target named is Ear-1 (Klebsiella aerogenes, UniProt A0A0H3FRQ3). Kind of assay: IC50 of β-lactamase inhibitors, crude extract, Ear-1. Format: biochemical.
Chain of Ear-1 (A0A0H3FRQ3 entry or part of it): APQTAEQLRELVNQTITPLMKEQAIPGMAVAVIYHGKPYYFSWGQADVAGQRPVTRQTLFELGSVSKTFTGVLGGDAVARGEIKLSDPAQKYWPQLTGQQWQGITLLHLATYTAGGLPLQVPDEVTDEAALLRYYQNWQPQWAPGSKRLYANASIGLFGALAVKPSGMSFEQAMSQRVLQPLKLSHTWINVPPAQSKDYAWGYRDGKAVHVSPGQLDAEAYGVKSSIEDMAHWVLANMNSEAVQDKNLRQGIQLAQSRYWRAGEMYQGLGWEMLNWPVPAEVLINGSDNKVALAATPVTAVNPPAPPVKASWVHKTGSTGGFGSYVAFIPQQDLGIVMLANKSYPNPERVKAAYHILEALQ
The next assay addresses T2, CMY-2 (Klebsiella pneumoniae, UniProt Q48434).
T2 construct: made in house; host or cells: E. coli TOP10, plasmid pUCp24
Kind of assay: biochemical. The arrangement: species or system Citrobacter spp.

Another assay deals with MIR-17. The assay can be described thus: IC50 of β-lactamase inhibitors, crude extract, MIR-17. Particulars: crude extract of E. coli TOP10 recombinant strain, mean of triplicate. Format: biochemical, Enterobacter roggenkampii.
The target of a further assay is ACT-7 (Enterobacter asburiae, UniProt B6V6L3). The assay can be described thus: biochemical.
Chain of ACT-7 (B6V6L3 entry or part of it): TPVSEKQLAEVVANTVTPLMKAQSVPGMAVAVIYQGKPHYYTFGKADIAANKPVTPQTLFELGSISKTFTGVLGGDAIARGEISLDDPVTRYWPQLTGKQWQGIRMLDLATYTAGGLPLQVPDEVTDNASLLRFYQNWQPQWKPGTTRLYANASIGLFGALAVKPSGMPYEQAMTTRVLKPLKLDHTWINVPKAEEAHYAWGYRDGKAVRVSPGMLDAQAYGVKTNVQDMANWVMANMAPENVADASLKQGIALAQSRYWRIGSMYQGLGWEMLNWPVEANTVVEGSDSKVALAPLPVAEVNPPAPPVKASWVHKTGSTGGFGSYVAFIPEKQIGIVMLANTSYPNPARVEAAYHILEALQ
In another assay the target is PDC-382 (Pseudomonas aeruginosa, UniProt P24735, T96I). Kind of assay: biochemical. The arrangement: species or system P. aeruginosa.
Chain of PDC-382 (P24735 27-397 T96I): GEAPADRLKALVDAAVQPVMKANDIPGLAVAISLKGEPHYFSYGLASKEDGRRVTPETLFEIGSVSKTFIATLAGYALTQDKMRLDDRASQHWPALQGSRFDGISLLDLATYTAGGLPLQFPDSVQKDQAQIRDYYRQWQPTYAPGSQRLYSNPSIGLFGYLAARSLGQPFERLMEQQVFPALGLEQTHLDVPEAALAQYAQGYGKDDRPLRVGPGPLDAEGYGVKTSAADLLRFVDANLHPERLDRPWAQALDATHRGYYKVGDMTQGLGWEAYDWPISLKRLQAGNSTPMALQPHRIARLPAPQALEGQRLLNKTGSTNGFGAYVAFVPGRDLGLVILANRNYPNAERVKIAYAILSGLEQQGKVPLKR
The target of another assay is MOX-2 (Aeromonas caviae, UniProt Q9L3G2). Kind of assay: IC50 of β-lactamase inhibitors, crude extract, MOX-2. In kind it is biochemical.
Chain of MOX-2 (Q9L3G2 entry or part of it): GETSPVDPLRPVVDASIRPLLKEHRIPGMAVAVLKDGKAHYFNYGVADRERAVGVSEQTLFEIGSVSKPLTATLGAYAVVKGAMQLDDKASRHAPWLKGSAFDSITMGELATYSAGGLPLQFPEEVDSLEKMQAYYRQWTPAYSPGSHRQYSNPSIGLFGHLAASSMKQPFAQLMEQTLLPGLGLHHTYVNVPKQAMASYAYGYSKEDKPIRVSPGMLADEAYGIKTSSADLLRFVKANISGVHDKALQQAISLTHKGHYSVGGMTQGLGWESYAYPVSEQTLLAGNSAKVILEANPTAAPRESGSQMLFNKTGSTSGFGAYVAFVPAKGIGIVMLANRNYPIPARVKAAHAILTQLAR
Another assay addresses T3, PDC-5 (Pseudomonas aeruginosa, UniProt P24735, R79Q/T105A).
T3 construct: made in house; host or cells: E. coli TOP10, plasmid pUCp24
Kind of assay: biochemical. More on the design: species or system P. aeruginosa.

Another assay addresses T4, CMY-42 (Klebsiella pneumoniae, UniProt Q48434, V231S).
T4 construct: made in house; host or cells: E. coli TOP10, plasmid pUCp24
Kind of assay: biochemical. The arrangement: species or system Citrobacter spp.

In another assay the target is FOX-5 (Aeromonas allosaccharophila, UniProt Q9F4K3). The assay can be described thus: IC50 of β-lactamase inhibitors, crude extract, FOX-5. Format: biochemical.
Chain of FOX-5 (Q9F4K3 entry or part of it): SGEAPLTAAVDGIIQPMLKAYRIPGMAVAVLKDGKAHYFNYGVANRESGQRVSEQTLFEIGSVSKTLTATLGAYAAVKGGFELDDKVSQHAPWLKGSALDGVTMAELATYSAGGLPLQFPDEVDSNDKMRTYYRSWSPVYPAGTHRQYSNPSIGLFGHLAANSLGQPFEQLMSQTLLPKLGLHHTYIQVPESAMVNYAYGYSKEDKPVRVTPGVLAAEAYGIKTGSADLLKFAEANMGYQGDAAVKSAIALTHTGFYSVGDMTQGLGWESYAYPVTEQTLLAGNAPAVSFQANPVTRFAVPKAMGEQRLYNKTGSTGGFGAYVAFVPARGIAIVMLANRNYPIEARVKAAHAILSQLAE
Another assay addresses SRT-1 (Serratia marcescens, UniProt P18539). The assay can be described thus: IC50 of β-lactamase inhibitors, crude extract, SRT-1. In kind it is biochemical. Particulars: crude extract of E. coli TOP10 recombinant strain, mean of triplicate.

Chain of LAT-1 (Q48443 entry or part of it): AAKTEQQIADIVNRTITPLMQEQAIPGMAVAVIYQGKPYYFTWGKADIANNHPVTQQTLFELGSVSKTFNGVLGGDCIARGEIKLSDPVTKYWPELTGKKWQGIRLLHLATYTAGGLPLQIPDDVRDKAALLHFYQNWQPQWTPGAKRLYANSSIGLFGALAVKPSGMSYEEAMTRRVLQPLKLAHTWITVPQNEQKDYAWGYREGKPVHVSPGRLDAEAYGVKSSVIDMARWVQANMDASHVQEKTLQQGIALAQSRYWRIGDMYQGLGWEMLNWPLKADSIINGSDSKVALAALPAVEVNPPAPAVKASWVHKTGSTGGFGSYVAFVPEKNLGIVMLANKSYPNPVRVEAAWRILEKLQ
T2 sequence (Q48434 21-381): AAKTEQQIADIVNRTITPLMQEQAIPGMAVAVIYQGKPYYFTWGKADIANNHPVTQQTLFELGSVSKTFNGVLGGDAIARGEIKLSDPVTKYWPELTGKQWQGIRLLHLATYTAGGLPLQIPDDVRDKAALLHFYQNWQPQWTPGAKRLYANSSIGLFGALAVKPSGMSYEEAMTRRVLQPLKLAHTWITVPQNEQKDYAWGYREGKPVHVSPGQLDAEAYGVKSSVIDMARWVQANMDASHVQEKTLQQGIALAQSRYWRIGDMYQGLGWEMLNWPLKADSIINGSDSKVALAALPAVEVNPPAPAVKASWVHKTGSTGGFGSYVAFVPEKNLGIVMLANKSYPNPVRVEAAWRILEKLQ
T4 sequence (Q48434 21-381 V231S): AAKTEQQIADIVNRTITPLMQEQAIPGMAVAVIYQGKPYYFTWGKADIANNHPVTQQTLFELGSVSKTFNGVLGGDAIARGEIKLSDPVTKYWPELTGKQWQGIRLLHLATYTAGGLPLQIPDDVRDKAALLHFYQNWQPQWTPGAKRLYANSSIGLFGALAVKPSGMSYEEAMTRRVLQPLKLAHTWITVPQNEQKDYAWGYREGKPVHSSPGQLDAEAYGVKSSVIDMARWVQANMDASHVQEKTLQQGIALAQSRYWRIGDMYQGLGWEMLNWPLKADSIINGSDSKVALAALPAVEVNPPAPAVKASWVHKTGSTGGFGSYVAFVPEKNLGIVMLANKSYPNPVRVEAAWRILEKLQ
Chain of YRC-1 (Q20I87 entry or part of it): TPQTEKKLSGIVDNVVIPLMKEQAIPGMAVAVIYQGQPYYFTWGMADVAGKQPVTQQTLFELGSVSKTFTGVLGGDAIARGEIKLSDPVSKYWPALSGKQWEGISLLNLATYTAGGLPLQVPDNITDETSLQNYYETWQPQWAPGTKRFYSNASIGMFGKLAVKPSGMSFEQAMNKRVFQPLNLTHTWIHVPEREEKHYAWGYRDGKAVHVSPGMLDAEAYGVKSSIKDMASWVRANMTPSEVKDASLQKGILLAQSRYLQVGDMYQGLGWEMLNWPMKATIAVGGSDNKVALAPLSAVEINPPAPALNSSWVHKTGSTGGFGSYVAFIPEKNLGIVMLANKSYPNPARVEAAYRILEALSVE
Chain of ACT-17 (P05364 21-381): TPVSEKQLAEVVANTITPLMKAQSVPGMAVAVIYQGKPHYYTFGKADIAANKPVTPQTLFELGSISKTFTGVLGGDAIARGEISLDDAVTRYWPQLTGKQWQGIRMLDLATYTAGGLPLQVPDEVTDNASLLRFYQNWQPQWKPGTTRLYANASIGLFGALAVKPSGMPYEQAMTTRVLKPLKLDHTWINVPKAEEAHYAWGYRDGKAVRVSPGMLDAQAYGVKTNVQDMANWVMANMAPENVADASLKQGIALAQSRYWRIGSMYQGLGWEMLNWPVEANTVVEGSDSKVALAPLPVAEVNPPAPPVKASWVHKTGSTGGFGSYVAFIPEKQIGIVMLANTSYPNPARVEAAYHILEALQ
Chain of SRT-1 (P18539 22-376): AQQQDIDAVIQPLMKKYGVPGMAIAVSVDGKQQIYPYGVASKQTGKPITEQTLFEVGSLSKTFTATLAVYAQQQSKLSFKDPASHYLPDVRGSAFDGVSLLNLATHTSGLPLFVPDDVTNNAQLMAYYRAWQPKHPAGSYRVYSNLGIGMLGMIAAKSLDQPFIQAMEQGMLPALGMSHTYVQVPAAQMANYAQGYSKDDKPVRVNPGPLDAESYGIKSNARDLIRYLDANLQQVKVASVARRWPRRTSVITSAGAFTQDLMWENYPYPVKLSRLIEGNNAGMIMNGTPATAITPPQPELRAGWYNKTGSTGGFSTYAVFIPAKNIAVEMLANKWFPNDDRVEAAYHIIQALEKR

Take `CC(C)(O/N=C(\C(=O)N[C@@H]1C(=O)N2C(C(=O)[O-])=C(C[n+]3ccccc3)CS[C@H]12)c1csc(N)n1)C(=O)O` [Ceftazidime, ceftazidime]: the MIC with E. coli ATCC 25922 (ATCC25922, E. coli ATCC 25922, β-lactam alone or with inhibitor at fixed conc.: CLA 2 µg/mL, TZB, AVI, REL, NAC, ZID, DUR, TAN 4 µg/mL, VAB, XER, EMT 8 µg/mL, read-out: MICs) worked out at 0.06 µg/mL; in the assay on E. coli ATCC 25922 (ATCC25922, QC strain E. coli ATCC 25922, Table S1, read-out: Minimal Inhibitory Concentrations), 0.06 µg/mL; in assay [1] it was 0.5 µg/mL; in assay [2], 32 µg/mL; in assay [3] it was 64 µg/mL; in [4], 2 µg/mL. Also, the MIC in [5] was above 256 µg/mL; in assay [6], 0.5 µg/mL; in assay [7], above 256 µg/mL; in assay [8], 64 µg/mL; in assay [9], above 256 µg/mL; in [10], 32 µg/mL. The MIC in assay [11] worked out at 1 µg/mL; in [12], 4 µg/mL; in assay [13], 8 µg/mL; in assay [14], 128 µg/mL; in [15], 8 µg/mL; in [16], 4 µg/mL. Further, the MIC was 0.25 µg/mL with E. coli TOP10 [17]; 256 µg/mL in [18]; 2 µg/mL in [19]; 64 µg/mL in [20]; 64 µg/mL in [21].

By IC50 is commonly meant the point on the concentration scale where inhibition reaches its midpoint. Regarding `O=C(O)c1c(F)ccc2c1OB(O)[C@@H]1C[C@H]21` [Xeruborbactam, xeruborbactam], the IC50 is 5400 nM at ADC-50; 5000 nM on ADC-50 (listed as XER); 160 nM at DHA-1; 960 nM against YRC-1; 340 nM on LAT-1; 200 nM on ACT-17. The concentration for half-maximal inhibition (IC50) at ACC-1 was found to be 90 nM; against PDC-1, 670 nM; against Ear-1 it was 220 nM; against CMY-2 it was 280 nM; at MIR-17 it was 310 nM; against ACT-7, 290 nM. Moreover, the IC50 against PDC-382 is 320 nM; at MOX-2 it was 260 nM; against PDC-5, 660 nM; against CMY-42, 430 nM; at FOX-5, 230 nM; on SRT-1, 220 nM. In addition, the “MIC value of XER alone” value in the assay on E. coli TOP10 [22] is “above 16 µg/mL”.
